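Interpolation was linear, between the two tested concentrations surrounding the appropriate level; five concentrations were tested over 48 hours in 96-well plates. TGI: total growth inhibition.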
Experiments:
Assay in all cases: growth of human tumour cells (NCI), 48 h
[1] = tested on: NCI-H460 lung
[2] = tested on: SR leukemia
[3] = tested on: SF-268 CNS
[4] = tested on: SK-MEL-5 melanoma
[5] = tested on: HCT-15 colon
[6] = tested on: NCI-H522 lung
[7] = tested on: SW-620 colon
[8] = tested on: 786-0 renal
[9] = tested on: MALME-3M melanoma
[10] = tested on: UO-31 renal
[11] = tested on: CAKI-1 renal
[12] = tested on: KM12 colon
[13] = tested on: HCC-2998 colon

| SMILES | TGI [1] | TGI [2] | TGI [3] | TGI [4] | TGI [5] | TGI [6] | TGI [7] | TGI [8] | TGI [9] | TGI [10] | TGI [11] | TGI [12] | TGI [13] |
| --- | --- | --- | --- | --- | --- | --- | --- | --- | --- | --- | --- | --- | --- |
| CC(=O)OCc1ncccc1C(OC(C)=O)OC(C)=O | > 100 µM | > 100 µM | > 100 µM | > 100 µM | > 100 µM | > 100 µM | > 100 µM | > 100 µM | > 100 µM | > 100 µM | > 100 µM | > 100 µM |  |
| CC(=O)NC(CCCCN(Cc1ccccc1)C(=O)N(C)N=O)C(=O)NCc1ccccc1 (stereo not drawn) | > 100 µM |  | > 100 µM | > 100 µM | > 100 µM | > 100 µM | > 100 µM | > 100 µM | > 100 µM | > 100 µM | > 100 µM | > 100 µM | > 100 µM |
| COc1cc(CO)cc2c1[nH]c1ccccc12 | > 25 µM | > 25 µM | > 25 µM | > 25 µM | > 25 µM | > 25 µM | > 25 µM | > 25 µM | > 25 µM | > 25 µM |  | > 25 µM | > 25 µM |
| NC(=S)N/N=C(/CCN1CCCC1)CC(C1=C(O)C2=CCCCC2OC1=O)c1ccccc1 (stereo not drawn) | > 100 µM | > 100 µM | > 100 µM | > 100 µM | > 100 µM | > 100 µM | > 100 µM | > 100 µM | > 100 µM | > 100 µM | > 100 µM | > 100 µM | > 100 µM |
| CCOc1cc2cnc3c4cc(OC)c(OC)cc4ccc3c2cc1OC | > 100 µM | > 100 µM | > 100 µM | > 100 µM | > 100 µM | > 100 µM | > 100 µM | > 100 µM | > 100 µM | > 100 µM | > 100 µM | > 100 µM | > 100 µM |
| CC(=O)Nc1ccc(S(=O)(=O)N/N=C(\C)CN2C(=O)c3ccccc3C2=O)cc1 | > 100 µM | > 100 µM |  | > 100 µM | > 100 µM | > 100 µM | > 100 µM | > 100 µM | > 100 µM | > 100 µM | > 100 µM | > 100 µM | > 100 µM |
| O=C(c1nc2ccc(Cl)cc2[nH]c1=O)C(O)c1ccco1 (stereo not drawn) | > 100 µM |  | > 100 µM | > 100 µM | 37.1 µM | 32.2 µM | > 100 µM | > 100 µM | > 100 µM | > 100 µM | > 100 µM |  | > 100 µM |
| COc1ccc([C@H]2[C@@H]3CCc4ccccc4C3=NN2C(N)=S)cc1OC | > 100 µM | 72.4 µM | > 100 µM |  | > 100 µM | 59.7 µM | > 100 µM | > 100 µM | > 100 µM | > 100 µM |  | > 100 µM | > 100 µM |
| FC(F)(F)c1nc2c(ccc3[nH]c4c(-c5ccccc5)nccc4c32)[nH]1 | > 100 µM | 40.7 µM | > 100 µM | > 100 µM | > 100 µM | > 100 µM | > 100 µM | > 100 µM | > 100 µM | > 100 µM | > 100 µM | > 100 µM | > 100 µM |
| Cc1ccc([N+](=O)[O-])cc1NC(=O)/C(CC(=O)c1sc(C(N)=S)nc1C)=N\N | > 100 µM | > 100 µM | > 100 µM | > 100 µM | > 100 µM | 76.4 µM | > 100 µM | > 100 µM | > 100 µM | > 100 µM | > 100 µM | > 100 µM | > 100 µM |
| COC(=O)[C@H]1C2CC[C@@H]3C45C[C@@H](c6ccoc6)O[C@@H]4O[C@@H](O2)C31CCC5C (stereo partly drawn) | > 100 µM |  | > 100 µM | > 100 µM | > 100 µM | > 100 µM | > 100 µM | > 100 µM | > 100 µM | > 100 µM | > 100 µM | > 100 µM | > 100 µM |
| C[C@@H]1C[C@@H]2C(=O)N(c3ccccc3)C(=O)[C@@H]2c2[nH]c3ccc(Br)cc3c21 | > 100 µM | > 100 µM | > 100 µM | > 100 µM | > 100 µM | 78.5 µM | > 100 µM | > 100 µM | > 100 µM | > 100 µM | > 100 µM | 75.4 µM | > 100 µM |
| CC1=C(c2ccccc2)CON(c2ccccc2)C1 | > 100 µM | > 100 µM | > 100 µM | 47.5 µM | > 100 µM | 53.8 µM | > 100 µM | > 100 µM | > 100 µM | 97.5 µM | > 100 µM | > 100 µM | > 100 µM |
| CN(C)CCSC(=Nc1ccccc1)n1cccc1 | > 100 µM | > 100 µM | > 100 µM | > 100 µM | > 100 µM | > 100 µM | > 100 µM | > 100 µM | > 100 µM | > 100 µM | > 100 µM | > 100 µM |  |
| COc1ccc(/C=N/NC(=O)CSc2nc(-c3ccccc3)c(-c3ccccc3)[nH]2)cc1OC | 91.6 µM |  | > 100 µM | 31.3 µM | 83.9 µM | 39.9 µM | > 100 µM | 81 µM | 35.8 µM | 69.7 µM | 72.9 µM | 34 µM |  |
